Results published in patent publication US6455540B1, “Methods of use of quinolone compounds against anaerobic pathogenic bacteria” (priority 1999, dated 2002).
Values after ≈ are worked out from the molar mass of the structure shown.

Experiments:
Test in all cases: Agar dilution MIC
[1] = test system: Prevotella buccae-oris group; assay type: cell-based; conditions: 22 isolates
Bacteroides tectum = assay type: cell-based; conditions: Bacteroides pyogenes, 22 isolates
Porphyromonas canoris = assay type: cell-based; conditions: Porphyromonas canoris, 10 isolates
Porphyromonas macaccae = assay type: cell-based; conditions: Porphyromonas, read-out: Minimal Inhibitory Concentration 50% (MIC50); 13 isolates
[2] = test system: Anaerobiospirillum thomasii; assay type: cell-based; conditions: 13 isolates
[3] = test system: Peptostreptococcus prevotii; assay type: cell-based; conditions: Anaerococcus prevotii, read-out: Minimal Inhibitory Concentration 50% (MIC50); 9 isolates
[4] = test system: Peptostreptococcus magnus; assay type: cell-based; conditions: 13 isolates
Clostridium ramosum = assay type: cell-based; conditions: 10 isolates
Fusobacterium russii = assay type: cell-based; conditions: Fusobacterium russii; read-out: Minimal Inhibitory Concentration 90% (MIC90)
Actinomyces israelii = assay type: cell-based; conditions: 6 isolates
[5] = test system: Actinomyces odontolyticus; assay type: cell-based; conditions: Schaalia odontolytica, 10 isolates
[6] = test system: Anaerobiospirillum succiniciproducens; assay type: cell-based; conditions: 3 isolates
[7] = test system: Prevotella heparinolytica; assay type: cell-based; conditions: 16 isolates
Prevotella bivia = assay type: cell-based; conditions: 21 isolates
Clostridium inocuum = assay type: cell-based, Clostridium innocuum; conditions: 11 isolates
Porphyromonas spp. = assay type: cell-based, Porphyromonas cangingivalis, cansulci, circumdentaria, levii; conditions: Porphyromonas, read-out: Minimal Inhibitory Concentration 50% (MIC50); 11 isolates
[8] = test system: Clostridium clostridioforme; assay type: cell-based; conditions: 11 isolates
[9] = test system: Prevotella denticola/loeschii group; assay type: cell-based; conditions: 6 isolates
[10] = test system: Porphyromonas asaccharolyticus; assay type: cell-based, Porphyromonas asaccharolytica; conditions: Porphyromonas, 11 isolates
Bacteroides gracilis = assay type: cell-based, Bacteroides gracilis (Campylobacter gracilis); conditions: Campylobacter gracilis, 11 isolates
Prevotella intermedia = assay type: cell-based; conditions: 11 isolates
[11] = test system: Prevotella melaninogenica; assay type: cell-based; conditions: Prevotella melaninogenica, 12 isolates
Fusobacterium varium = assay type: cell-based; conditions: Fusobacterium varium, 17 isolates
[12] = test system: Fusobacterium spp. group 2; assay type: cell-based, Fusobacterium mortiferum, necrogenes, ulcerans; conditions: Fusobacterium, 12 isolates
[13] = test system: Fusobacterium spp group 1; assay type: cell-based; conditions: Fusobacterium, 19 isolates
Bacteroides ureolyticus = assay type: cell-based; conditions: 17 isolates
Clostridium dfficile = assay type: cell-based, Clostridium difficile; conditions: 14 isolates
[14] = test system: Peptostreptococcus micros; assay type: cell-based; conditions: 12 isolates
Veillonella spp. = assay type: cell-based; conditions: 24 isolates
Porphyromonas gingivalis = assay type: cell-based; conditions: Porphyromonas gingivalis, 13 isolates
[15] = test system: Peptostreptococcus asaccharolyticus; assay type: cell-based; conditions: Peptoniphilus asaccharolyticus, 11 isolates
[16] = read-out: Minimal Inhibitory Concentration 90% (MIC90)
[17] = read-out: Minimal Inhibitory Concentration 50% (MIC50)
[18] = Clostridium, read-out: Minimal Inhibitory Concentration 90% (MIC90)

For `Cc1ncc([N+](=O)[O-])n1CCO` [Metronidazole], the “Minimal Inhibitory Concentration Range” value [1] was 0.5 to 4 µg/mL, the MIC90 ([1]; Prevotella, read-out: Minimal Inhibitory Concentration 90% (MIC90)) was 2 µg/mL (≈ 11.7 µM) and the MIC50 ([1]; Prevotella, read-out: Minimal Inhibitory Concentration 50% (MIC50)) was 1 µg/mL (≈ 5.84 µM). The MIC90 (Bacteroides tectum; [16]) was 0.5 µg/mL (≈ 2.92 µM), the MIC50 (Bacteroides tectum; [17]) was 0.5 µg/mL (≈ 2.92 µM) and the MIC50 (Porphyromonas canoris; [17]) was 0.25 µg/mL (≈ 1.46 µM). The MIC90 (Porphyromonas canoris; [16]) was 0.25 µg/mL (≈ 1.46 µM), the MIC50 (Porphyromonas macaccae) was 0.06 µg/mL (≈ 0.351 µM) and the “Minimal Inhibitory Concentration Range” value [2] was 1 to 4 µg/mL. The MIC50 ([2]; Anaerobiospirillum thomasii, read-out: Minimal Inhibitory Concentration 50% (MIC50)) was 2 µg/mL (≈ 11.7 µM), the MIC90 ([2]; Anaerobiospirillum thomasii, read-out: Minimal Inhibitory Concentration 90% (MIC90)) was 4 µg/mL (≈ 23.4 µM) and the MIC50 [3] was 0.5 µg/mL (≈ 2.92 µM). For the same molecule, the “Minimal Inhibitory Concentration Range” value [4] was 0.25 to 2 µg/mL, the MIC50 ([4]; Finegoldia magna, read-out: Minimal Inhibitory Concentration 50% (MIC50)) was 0.5 µg/mL (≈ 2.92 µM) and the MIC90 ([4]; Finegoldia magna, read-out: Minimal Inhibitory Concentration 90% (MIC90)) was 0.5 µg/mL (≈ 2.92 µM). The “Minimal Inhibitory Concentration Range” value (Clostridium ramosum) was 1 µg/mL, the MIC50 (Clostridium ramosum; Thomasclavelia ramosa, read-out: Minimal Inhibitory Concentration 50% (MIC50)) was 1 µg/mL (≈ 5.84 µM) and the MIC90 (Clostridium ramosum; Thomasclavelia ramosa, read-out: Minimal Inhibitory Concentration 90% (MIC90)) was 1 µg/mL (≈ 5.84 µM). For the same molecule, the MIC90 (Fusobacterium russii) was 0.25 µg/mL (≈ 1.46 µM), the “Minimal Inhibitory Concentration Range” value (Actinomyces israelii) was 1 to 32 µg/mL and the MIC50 (Actinomyces israelii; Actinomyces israelii, read-out: Minimal Inhibitory Concentration 50% (MIC50)) was 4 µg/mL (≈ 23.4 µM). The MIC90 [5, 16] was 32 µg/mL (≈ 187 µM), the MIC50 [5, 17] was 16 µg/mL (≈ 93.5 µM) and the “Minimal Inhibitory Concentration Range” value [6] was 4 to 8 µg/mL. For the same molecule, the MIC50 ([6]; Anaerobiospirillum succiniciproducens, read-out: Minimal Inhibitory Concentration 50% (MIC50)) was 8 µg/mL (≈ 46.7 µM), the “Minimal Inhibitory Concentration Range” value [7] was 0.06 to 1 µg/mL and the MIC90 ([7]; Prevotella heparinolytica, read-out: Minimal Inhibitory Concentration 90% (MIC90)) was 1 µg/mL (≈ 5.84 µM). The MIC50 ([7]; Prevotella heparinolytica, read-out: Minimal Inhibitory Concentration 50% (MIC50)) was 0.5 µg/mL (≈ 2.92 µM), the “Minimal Inhibitory Concentration Range” value (Prevotella bivia) was 0.5 to 4 µg/mL and the MIC90 (Prevotella bivia; Prevotella bivia, read-out: Minimal Inhibitory Concentration 90% (MIC90)) was 4 µg/mL (≈ 23.4 µM). The MIC50 (Prevotella bivia; Prevotella bivia, read-out: Minimal Inhibitory Concentration 50% (MIC50)) was 2 µg/mL (≈ 11.7 µM), the “Minimal Inhibitory Concentration Range” value (Clostridium inocuum) was 0.5 to 2 µg/mL and the MIC90 (Clostridium inocuum; [18]) was 1 µg/mL (≈ 5.84 µM). The MIC50 (Clostridium inocuum; Clostridium, read-out: Minimal Inhibitory Concentration 50% (MIC50)) was 0.5 µg/mL (≈ 2.92 µM), the MIC50 (Porphyromonas spp.) was 0.03 µg/mL (≈ 0.175 µM) and the “Minimal Inhibitory Concentration Range” value [8] was 0.03 to 1 µg/mL. The MIC90 [8, 18] was 0.5 µg/mL (≈ 2.92 µM), the “Minimal Inhibitory Concentration Range” value [9] was 0.5 to 1 µg/mL and the MIC50 ([9]; Prevotella denticola, read-out: Minimal Inhibitory Concentration 50% (MIC50)) was 1 µg/mL (≈ 5.84 µM). For the same molecule, the MIC50 [10, 17] was no more than 0.015 µg/mL, the MIC90 [10, 16] was no more than 0.015 µg/mL and the MIC90 (Bacteroides gracilis; [16]) was greater than 32 µg/mL. For the same molecule, the MIC50 (Bacteroides gracilis; [17]) was 0.5 µg/mL (≈ 2.92 µM), the “Minimal Inhibitory Concentration Range” value (Prevotella intermedia) was 0.03 to 1 µg/mL and the MIC90 (Prevotella intermedia; Prevotella intermedia, read-out: Minimal Inhibitory Concentration 90% (MIC90)) was 1 µg/mL (≈ 5.84 µM). The MIC50 (Prevotella intermedia; Prevotella intermedia, read-out: Minimal Inhibitory Concentration 50% (MIC50)) was 0.5 µg/mL (≈ 2.92 µM), the MIC90 [11, 16] was 1 µg/mL (≈ 5.84 µM) and the MIC50 [11, 17] was 0.5 µg/mL (≈ 2.92 µM). The MIC50 (Fusobacterium varium; [17]) was 1 µg/mL (≈ 5.84 µM), the MIC90 (Fusobacterium varium; [16]) was 2 µg/mL (≈ 11.7 µM) and the MIC50 [12, 17] was 0.5 µg/mL (≈ 2.92 µM). For the same molecule, the MIC90 [12, 16] was 1 µg/mL (≈ 5.84 µM), the MIC50 ([13]; GROUP1, read-out: Minimal Inhibitory Concentration 50% (MIC50)) was 0.25 µg/mL (≈ 1.46 µM) and the MIC90 ([13]; GROUP1, read-out: Minimal Inhibitory Concentration 90% (MIC90)) was 4 µg/mL (≈ 23.4 µM). For the same molecule, the “Minimal Inhibitory Concentration Range” value (Bacteroides ureolyticus) was 0.06 to 2 µg/mL, the MIC90 (Bacteroides ureolyticus; Campylobacter ureolyticus, read-out: Minimal Inhibitory Concentration 90% (MIC90)) was 1 µg/mL (≈ 5.84 µM) and the MIC50 (Bacteroides ureolyticus; Campylobacter ureolyticus, read-out: Minimal Inhibitory Concentration 50% (MIC50)) was 0.25 µg/mL (≈ 1.46 µM). For the same molecule, the “Minimal Inhibitory Concentration Range” value (Clostridium dfficile) was 0.25 to 1 µg/mL, the “Minimal Inhibitory Concentration Range” value [14] was 0.03 to 0.25 µg/mL and the MIC50 ([14]; Parvimonas micra, read-out: Minimal Inhibitory Concentration 50% (MIC50)) was 0.25 µg/mL (≈ 1.46 µM). The MIC90 ([14]; Parvimonas micra, read-out: Minimal Inhibitory Concentration 90% (MIC90)) was 0.25 µg/mL (≈ 1.46 µM), the “Minimal Inhibitory Concentration Range” value (Veillonella spp.) was 0.25 to 2 µg/mL and the MIC90 (Veillonella spp.; Veillonella, read-out: Minimal Inhibitory Concentration 90% (MIC90)) was 2 µg/mL (≈ 11.7 µM). The MIC50 (Veillonella spp.; Veillonella, read-out: Minimal Inhibitory Concentration 50% (MIC50)) was 1 µg/mL (≈ 5.84 µM), the MIC50 (Porphyromonas gingivalis; [17]) was no more than 0.015 µg/mL and the MIC90 (Porphyromonas gingivalis; [16]) was 0.03 µg/mL (≈ 0.175 µM). The MIC50 [15, 17] was 0.5 µg/mL (≈ 2.92 µM) and the MIC90 [15, 16] was 1 µg/mL (≈ 5.84 µM).
